These are literature values, as cited in patent publication US20240207240A1, “Method for Improving or Treating Cognitive Dysfunction Complicating HIV-associated Cryptococcal Meningitis with Lenalidomide” (The First Affiliated Hospital Zhejiang University School of …, priority 2022, published 2024).

For data set [1] the following is noted: cited from earlier work.
For data set [2] the following is noted: in vivo; cited from earlier work.

Take `Nc1cccc2c1C(=O)N(C1CCC(=O)NC1=O)C2=O` (stereo not drawn) [pomalidomide]: in data set [1], the bioavailability entry was “high”.

As to `O=C1CCC(N2C(=O)c3ccccc3C2=O)C(=O)N1` (stereo not drawn) [thalidomide], the side effects result in data set [2] was “bone marrow suppression, cardiotoxicity, vascular thrombosis, and neurotoxicity”. In addition, in data set [1], the bioavailability result is “high”.
